Reference: patent US4740498A, “Fibronectin preparations” (Green Cross Corporation, priority 1984, dated 1988)

System: corneal epithelium of rabbits
Experiment: Therapeutic effect in model of corneal disturbance (refrigeration trauma on the corneal epithelium)
Type: in vivo
Details: 400 μg/ml into the eyes, FN = eye drops of Example 2, albumin = control
Protocol: The therapeutic effect of the FN preparations of the present invention was examined using a model of corneal disturbance in rabbits. The model was prepared by applying liquid nitrogen to the eyes of rabbits to cause refrigeration trauma on the corneal epithelium. The FN eye drops prepared in Example 2 were administered into the eyes thus suffering from corneal disturbance at a dose of 400 μg-FN/ml, and the wound surface area was measured with the passage of time. As a control, 400 μg/ml of albumin was used.

Albumin
Wound Surface Area, 0 Day (0 Day): 45 mm^2 | Wound Surface Area, 1 Day (1 Day): 31 mm^2 | Wound Surface Area, 2 Days (2 Days): 33 mm^2 | Wound Surface Area, 3 Days (3 Days): 25 mm^2 | Wound Surface Area, 4 Days (4 Days): 14 mm^2
